Columns and labels:
ApoE gene-deficient mice [1] = experiment: Inhibition of lipid peroxide formation in blood (serum TBARS/MDA) in ApoE gene-deficient mice; format: in vivo, mouse; conditions: 30 μg per day; for Amount of lipid peroxide in blood (MDA concentration): serum, 14 days after start of administration, oral once a day, high-cholesterol diet
From the text: The actions of inhibiting formation of a lipid peroxide of various test samples including the antioxidant of the present invention can be evaluated by using, as an index, the amount of a thiobarbituric acid (TBA) reactive substance (TBARS), for example. Specifically, it may be defined that the larger the amount of the TBARS, the larger the amount of a lipid peroxide formed.
Examples of the TEARS include malondialdehyde (MDA) which reacts with TBA under high-temperature and acidic conditions and is a natural by-product of a lipid peroxidation. An MDA-TBA adduct can be detected by measurement of an absorbance at 530 to 540 nm to perform colorimetric measurement of MDA.
Also, the action of inhibiting formation of a lipid peroxide of a test sample can be evaluated using ApoE gene-deficient mice, which are often used as model animals which develop arteriosclerosis by hypercholesterolemia (hyper-LDL-cholesterolemia) (for example, see Reference Document 1: “Saibokogaku (Cell Engineering),” Extra Issue, “Medical Experiment Manual” series, Strategy for Study of Arteriosclerosis+Hyperlipidemia, Shujunsha Co., 1st edition, 1st impression, published on Apr. 1, 1996, pp. 441-443).
Further, in the model mice, the lipid peroxide level is higher than that of normal mice, and formation of atherosclerotic lesions (plagues) in the artery is observed with time. Therefore, the action of inhibiting formation of a lipid peroxide of a test sample can be evaluated by administering the test sample to the model mice and measuring a lipid peroxide in blood of the model mice.
Those samples were separately dissolved in propylene glycol, and diluted with distilled water so as to obtain test solutions with the concentration of each compound of 30 μg/ml, and the solutions were used for a test. Note that physiological saline was used as a negative sample.
(§1) Six-week-old male ApoE gene-deficient mice (purchased from Japan SLC, Inc.) were preliminarily fed with a high-cholesterol diet (manufactured by Research Diets, Inc.) for 2 weeks and divided into groups each of 15 mice.
To mice of each group, the test solution including the test samples 1 to 6, control sample, or negative sample was separately administered orally once a day for […] using medical probes in an amount of 1 ml per 25 g of mouse body weight. At an early period after the start of administration (14 days after the start of administration), blood was collected from the tail vein of each mouse, and serum was separated. Then, the amount of TBARS was measured using OxiSelect TBARS Assay Kit (manufactured by […]). Meanwhile, as a control, blood was collected from each normal mouse in the same manner as above.

ApoE gene-deficient mice [2] = experiment: Number of atherosclerotic lesions (plaques) in thoracic aorta of ApoE gene-deficient mice; format: in vivo, mouse; conditions: 40 days after start, oral once a day for 39 consecutive days; for Number of plaques formed in thoracic aorta: 1 ml of 30 μg/ml per 25 g body weight, Oil red staining
From the text: In addition, it is generally known that a primary lesion of arteriosclerosis is caused by oxidized LDL. Therefore, it is also possible to evaluate the action of reducing a risk of arteriosclerosis through inhibiting formation of a lipid peroxide of the test sample by counting the number of atherosclerotic lesions (plaques) in the artery of each model mouse treated with the test sample.
In Example 2, a cyclolanostane compound, a lophenol compound, and a mixture of the cyclolanostane compound and the lophenol compound were each evaluated on the effect of reducing a risk of arteriosclerosis through the effect of inhibiting a lipid peroxide by counting the number of atherosclerotic lesions (plaques) in the artery using known arteriosclerosis model animals, ApoE gene-deficient mice.
Test samples 1 to 6, a control sample, and a negative sample were prepared in the same way as in Example 1 above and were each used for a test.
as §1
To mice of each group, the sample solution including the test samples, control sample, or negative sample was separately administered orally once a day for 39 consecutive days using medical probes in an amount of 1 ml per 25 g of mouse body weight. Forty days after the start of administration, the thoracic aorta part was fixed with formalin and stained with Oil red, and the number of plaques was counted.

SMILES | effect of inhibiting formation of a lipid peroxide in blood compared with the negative sample (ApoE gene-deficient mice [1]; serum TBARS, 14 days after start of oral administration) | Amount of lipid peroxide in blood (MDA concentration) (ApoE gene-deficient mice [1]) | plaque formation compared with the negative sample (ApoE gene-deficient mice [2]) | Number of plaques formed in thoracic aorta (ApoE gene-deficient mice [2])
CC[C@H](C)C(=O)O[C@H]1C[C@H](O)C=C2C=C[C@H](C)[C@H](CC[C@@H](O)C[C@@H](O)CC(=O)[O-])[C@H]21.[Na+] [Control sample, reference compound] | a significant decrease in amount of a lipid peroxide in blood was not observed | 0.93 ± 0.05 µM | no significant difference | 10.6 ± 3.2
CC(C)CCCC(C)C1CCC2(C)C3CCC4C(C)(C)C(O)CCC45CC35CCC12C (centres unmarked) [Test sample 1, 9,19-Cyclolanostan-3-ol] |  | 0.62 ± 0.01 µM |  | 6.0 ± 0.7
C=C(CCC(C)C1CCC2(C)C3CCC4C(C)(C)C(O)CCC45CC35CCC12C)C(C)C (centres unmarked) [Test sample 2, 24-methylene-9,19-cyclolanostan-3-ol] |  | 0.5 ± 0.19 µM |  | 5.6 ± 1.5
CC(C)CCC[C@@H](C)[C@H]1CC[C@H]2C3=CCC4C(C)C(O)CC[C@]4(C)[C@H]3CC[C@]12C (some centres unmarked) [Test sample 3, 4-Methylcholest-7-en-3-ol] |  | 0.71 ± 0.08 µM |  | 6.2 ± 1.9
CC(C)C(C)CCC(C)C1CCC2C3=CCC4C(C)C(O)CCC4(C)C3CCC21C (centres unmarked) [Test sample 4, 4-methylergost-7-en-3-ol] |  | 0.69 ± 0.05 µM |  | 5.0 ± 1.4
CCC(CCC(C)C1CCC2C3=CCC4C(C)C(O)CCC4(C)C3CCC21C)C(C)C (centres unmarked) [Test sample 5, 4-methylstigmast-7-en-3-ol] |  | 0.72 ± 0.02 µM |  | 5.6 ± 2.1
